Assays:
[1] = molecular target: calcium channel (ileum) (Rattus norvegicus, UniProt P22002); experiment: In vitro calcium channel-antagonistic effect (ileum): inhibition of high potassium contraction of ileum samples; type: cell-based, rat (male Crj:CD); details: 30 minute pretreatment; for inhibition at 0.1 µM: high potassium (45.0 mM KCl) contraction, 10^−7 M test compound, read-out: Inhibition rate (%) (conc.: 10^−7M)
Procedure: In Vitro Calcium Channel-antagonistic Effect (Ileum):
The ileum was taken out of male Crj:CD rats (8-12 weeks old) at a position of 3 cm distant from the ileocecal region. The ileum samples were suspended in Tyrode's solution in which a mixed gas (95% of oxygen and 5% of carbon dioxide) was introduced at 37° C. As for the change in tension of the ileum, the isometry was recorded on a ink writing recorder through a transducer. The high potassium contraction was caused by changing the nutritive solution from the Tyrode's solution to a potassium-Tyrode's solution (94.6 mM of NaCl, 45.0 mM of KCl, 1.8 mM of CaCl2, 1.04 mM of MgCl2, 0.4 mM of NaH2PO4, 11.9 mM of NaHCO3, and 5.55 mM of glucose). The high potassium contraction-inhibiting effect of the test compound was determined by 30 minute pretreatment. Compound A described in European Patent No. 0404359A1 was used as a comparative substance. The results of the determination of the calcium channel antagonistic activity were given in terms of the rate of inhibition of the high calcium contraction with 10^−7 M of the test compound. In Table 2, “−” means not determined.

[2] = molecular target: calcium channel (blood vessel, thoracic aortae) (Rattus norvegicus, UniProt P22002); experiment: In vitro calcium channel-antagonistic effect (blood vessel): inhibition of high potassium contraction of thoracic aorta spiral samples; type: cell-based, rat (male Crj:CD); details: 30 minute pretreatment; for inhibition at 0.1 µM: high potassium (45.0 mM KCl) contraction, 10^−7 M test compound, read-out: Inhibition rate (%) (conc.: 10^−7M)
Sequence of calcium channel (blood vessel, thoracic aortae) (P22002 whole entry): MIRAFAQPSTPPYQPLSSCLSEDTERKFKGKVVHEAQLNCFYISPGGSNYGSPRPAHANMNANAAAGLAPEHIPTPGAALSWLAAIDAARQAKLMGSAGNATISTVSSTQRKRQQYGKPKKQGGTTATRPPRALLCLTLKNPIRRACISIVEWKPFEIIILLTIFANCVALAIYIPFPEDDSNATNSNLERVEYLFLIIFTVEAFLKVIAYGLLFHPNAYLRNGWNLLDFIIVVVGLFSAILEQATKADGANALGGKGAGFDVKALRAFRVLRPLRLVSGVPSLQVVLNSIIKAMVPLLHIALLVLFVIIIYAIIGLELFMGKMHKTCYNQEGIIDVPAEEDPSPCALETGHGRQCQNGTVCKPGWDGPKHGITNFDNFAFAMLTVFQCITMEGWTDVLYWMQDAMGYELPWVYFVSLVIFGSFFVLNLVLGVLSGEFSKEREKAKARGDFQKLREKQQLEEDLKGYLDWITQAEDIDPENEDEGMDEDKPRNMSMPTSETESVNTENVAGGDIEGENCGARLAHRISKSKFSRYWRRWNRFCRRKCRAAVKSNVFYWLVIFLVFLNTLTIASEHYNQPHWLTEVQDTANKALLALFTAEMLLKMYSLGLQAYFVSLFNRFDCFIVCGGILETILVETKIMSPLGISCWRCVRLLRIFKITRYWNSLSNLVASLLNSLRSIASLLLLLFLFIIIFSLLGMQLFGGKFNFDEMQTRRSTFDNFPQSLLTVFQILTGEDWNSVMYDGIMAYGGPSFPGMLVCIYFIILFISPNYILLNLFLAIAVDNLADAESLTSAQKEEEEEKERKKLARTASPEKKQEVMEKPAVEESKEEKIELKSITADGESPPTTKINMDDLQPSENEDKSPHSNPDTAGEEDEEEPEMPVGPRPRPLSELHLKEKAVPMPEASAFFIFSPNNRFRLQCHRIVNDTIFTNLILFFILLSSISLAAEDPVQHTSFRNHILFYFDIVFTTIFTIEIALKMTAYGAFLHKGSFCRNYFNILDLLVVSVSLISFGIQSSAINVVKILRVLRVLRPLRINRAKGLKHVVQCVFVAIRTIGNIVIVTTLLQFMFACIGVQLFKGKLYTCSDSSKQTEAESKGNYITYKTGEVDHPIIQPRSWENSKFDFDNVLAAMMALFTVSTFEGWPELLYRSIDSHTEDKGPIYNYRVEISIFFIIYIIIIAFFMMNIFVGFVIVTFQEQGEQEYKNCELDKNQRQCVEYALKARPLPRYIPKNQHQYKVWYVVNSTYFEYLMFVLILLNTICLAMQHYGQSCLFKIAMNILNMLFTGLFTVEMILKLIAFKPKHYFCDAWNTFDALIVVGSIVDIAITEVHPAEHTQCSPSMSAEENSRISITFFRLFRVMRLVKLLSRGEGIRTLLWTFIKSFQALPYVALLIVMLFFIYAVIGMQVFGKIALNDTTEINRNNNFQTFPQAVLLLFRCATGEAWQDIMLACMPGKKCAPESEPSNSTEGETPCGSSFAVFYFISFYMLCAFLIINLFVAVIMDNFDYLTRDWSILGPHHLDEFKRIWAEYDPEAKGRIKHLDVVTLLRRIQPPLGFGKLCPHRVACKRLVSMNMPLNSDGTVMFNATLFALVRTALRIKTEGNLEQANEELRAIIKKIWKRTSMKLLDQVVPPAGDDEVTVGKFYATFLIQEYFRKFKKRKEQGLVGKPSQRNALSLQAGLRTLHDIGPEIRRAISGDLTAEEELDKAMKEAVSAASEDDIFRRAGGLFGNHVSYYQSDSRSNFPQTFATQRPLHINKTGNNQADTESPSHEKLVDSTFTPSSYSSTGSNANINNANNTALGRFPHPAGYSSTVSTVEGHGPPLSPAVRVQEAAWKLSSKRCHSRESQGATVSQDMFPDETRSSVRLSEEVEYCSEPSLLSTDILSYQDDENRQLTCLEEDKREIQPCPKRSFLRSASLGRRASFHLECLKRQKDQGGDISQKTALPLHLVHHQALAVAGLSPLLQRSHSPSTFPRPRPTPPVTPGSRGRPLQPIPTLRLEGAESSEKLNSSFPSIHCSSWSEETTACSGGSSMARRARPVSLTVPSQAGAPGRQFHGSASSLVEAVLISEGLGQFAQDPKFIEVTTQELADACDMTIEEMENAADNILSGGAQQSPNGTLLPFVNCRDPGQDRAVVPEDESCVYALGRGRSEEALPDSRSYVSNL
Procedure: In Vitro Calcium Channel-antagonistic Effect (Blood Vessel):
The thoracic aortae were taken out of male Crj:CD rats (8-12 weeks old) and spiral samples were prepared from them. The blood vessel samples were suspended in Tyrode's solution in which a mixed gas (95% of oxygen and 5% of carbon dioxide) was introduced at 37° C. As for the change in tension of each blood vessel, the isometry was recorded on an ink writing recorder through a transducer. The high potassium contraction was caused by changing the nutritive solution from the Tyrode's solution to a potassium-Tyrode's solution (94.6 mM of NaCl, 45.0 mM of KCl, 1.8 mM of CaCl2, 1.04 mM of MgCl2, 0.4 mM of NaH2PO4, 11.9 mM of NaHCO3, and 5.55 mM of glucose). The high potassium contraction-inhibiting effect of the test compound was determined by 30 minute pretreatment. Compound A described in European Patent No. 0404359A1 was used as a comparative substance. The results of the determination of the calcium channel antagonistic activity were given in terms of the rate of inhibition of the high calcium contraction with 10^−7 M of the test compound. In Table 1, “−” means not determined.

[3] = Determination of solubility in neutral buffer solution; type: physicochemical; details: aqueous buffer, thermodynamic from solid; 0.15 M phosphate buffer pH 7.2, room temperature, left overnight, supernatant by HPLC
Procedure: Determination of Solubility:
A test compound was suspended in 0.15 M phosphate buffer solution having pH of 7.2 at room temperature. The obtained suspension was vigorously shaken and then left to stand overnight. The insoluble compound was removed by centrifugation, and the concentration of the compound in the supernatant was determined by the high-performance liquid chromatography.

Sequence of calcium channel (ileum) (P22002 whole entry): as above

SMILES | melting point [°C] | IC50 ([1]; high potassium contraction, read-out: IC50(nM), concentration for 50% contraction inhibition) [nM] | IC50 ([2]; high potassium contraction, read-out: IC50 (nM), concentration for 50% contraction inhibition) [nM] | solubility [3] [µg/mL] | inhibition at 0.1 µM [1] [%] | inhibition at 0.1 µM [2] [%]
Cl.O[C@@H](CCN1CCC[C@@H]1CN1c2ccccc2COc2ccccc21)c1ccccc1 | 149 to 150 | – | – | – | – | –
COc1ccc(CCN2CCCC2CN2c3ccccc3CSc3ccccc32)cc1.O=C(O)/C=C\C(=O)O (stereo not drawn) [Compound A, reference compound] | – | 120 | 530 | 13 | – | –
Cl.Cl.Nc1ccc(CCN2CCC[C@@H]2CN2c3ccccc3COc3ccccc32)cc1 | 176 to 180 | – | – | – | – | –
COc1ccc(CCN2CCC[C@@H]2CN2c3ccccc3COc3ccccc32)cc1N(C)C.Cl.Cl | 141 to 144 | – | – | – | – | –
COc1ccc(C=CCN2CCC[C@@H]2CN2c3ccccc3COc3ccccc32)cc1.Cl | 120 to 122 | – | – | – | – | –
CNc1cccc(CCN2CCC[C@@H]2CN2c3ccccc3COc3ccccc32)c1.Cl.Cl [Example 14, (R)-5,11-Dihydro-5-[1-[2-(3-methylaminophenyl)ethyl]-2-pyrrolidinylmethyl]dibenzo[b,e][1,4]oxazepine Dihydrochloride] | 179 to 181 | – | – | 56 | 76 | 41
CNc1ccc(CCN2CCC[C@@H]2CN2c3ccccc3COc3ccccc32)cc1.Cl.Cl [Example 8, (R)-5,11-Dihydro-5-[1-[2-(4-methylaminophenyl)ethyl]-2-pyrrolidinylmethyl]dibenzo[b,e][1,4]oxazepine Dihydrochloride] | 134 to 137 | – | – | 116 | – | –
COc1ccc(CCCN2CCC[C@@H]2CN2c3ccccc3COc3ccccc32)cc1.Cl [Example 24, (R)-5,11-Dihydro-5-[1-[3-(4-methoxyphenyl)propane-1-yl]-2-pyrrolidinylmethyl]dibenzo[b,e][1,4]oxazepine Hydrochloride] | 172 to 174 | – | – | 49 | 67 | 31
Cl.O[C@H](CCN1CCC[C@@H]1CN1c2ccccc2COc2ccccc21)c1ccccc1 | 179 to 182 | – | – | – | – | –
Cl.Cl.Nc1ccccc1CCN1CCC[C@@H]1CN1c2ccccc2COc2ccccc21 | 168 to 172 | – | – | – | – | –
CN(C)c1cccc(CCN2CCC[C@@H]2CN2c3ccccc3COc3ccccc32)c1.Cl.Cl [Example 10, (R)-5,11-Dihydro-5-[1-[2-(3-dimethylaminophenyl)ethyl]-2-pyrrolidinylmethyl]dibenzo[b,e][1,4]oxazepine Dihydrochloride] | 125 to 128 | – | – | 30 | 87 | 51
Cl.Cl.Nc1cccc(CCN2CCC[C@@H]2CN2c3ccccc3COc3ccccc32)c1 [Example 13, (R)-5,11-Dihydro-5-[1-[2-(3-aminophenyl)ethyl]-2-pyrrolidinylmethyl]dibenzo[b,e][1,4]oxazepine Dihydrochloride] | 149 to 152 | – | – | 418 | – | –
CN(C)c1ccc(CCN2CCC[C@@H]2CN2c3ccccc3COc3ccccc32)cc1.Cl.Cl [Example 2, (R)-5,11-Dihydro-5-[1-[2-(4-dimethylaminophenyl)ethyl]-2-pyrrolidinylmethyl]dibenzo[b,e][1,4]oxazepine Dihydrochloride] | 164 to 169 | – | – | 36 | 62 | 12
CN(C)c1cccc(CCN2CCC[C@@H]2CN2c3ccccc3COc3ccccc32)c1.Cl.Cl [Example 19, (R)-5,11-Dihydro-5-[1-[2-(3-dimethylaminophenyl)ethyl]2-pyrrolidinylmethyl)dibenzo[b,e][1,4]oxazepine Dihydrochloride] | 170 to 172 | – | – | – | – | –
CN(C)c1cccc(CCCN2CCC[C@@H]2CN2c3ccccc3COc3ccccc32)c1.Cl.Cl [Example 38, (R)-5,11-Dihydro-5-[1-[3-(3-dimethylaminophenyl)propane-1-yl]-2-pyrrolidinylmethyl]dibenzo[b,e][1,4]oxazepine Dihydrochloride] | 120 to 123 | – | – | 41 | 52 | 25
CCN(CC)c1ccc(CCN2CCC[C@@H]2CN2c3ccccc3COc3ccccc32)cc1.Cl.Cl [Example 6, (R)-5,11-Dihydro-5-[1-[2-(4-diethylaminophenyl)ethyl]-2-pyrrolidinylmethyl]dibenzo[b,e][1,4]oxazepine Dihydrochloride] | 143 to 146 | – | – | 638 | 51 | 24
COc1ccc(OCCN2CCC[C@@H]2CN2c3ccccc3COc3ccccc32)cc1.Cl | 186 to 191 | – | – | – | – | –
